Laboratory results reported in the NIST ThermoML archive (doi:10.1016/j.fluid.2005.05.023).

Experiment: xn = mol fraction of the nth substance listed
Conditions: Liquid, Vibrating tube method

Cc1ccccc1 [toluene] + CCO
mass density [kg/m3]
Conditions	100 kPa	5000 kPa	10000 kPa	15000 kPa	20000 kPa	25000 kPa	30000 kPa	35000 kPa	40000 kPa	45000 kPa
283.15 K, x2 = 0	876.1	879.5	882.9	886.1	889.3	892.4	895.3	898.2	901	903.7
283.15 K, x2 = 0.125	870.4	873.9	877.4	880.7	883.8	886.9	889.9	892.8	895.6	898.4
283.15 K, x2 = 0.25	864.3	867.9	871.3	874.6	877.9	881	884	886.9	889.7	892.5
283.15 K, x2 = 0.375	857.5	861.1	864.6	867.9	871.2	874.3	877.3	880.3	883.1	885.9
283.15 K, x2 = 0.5	849.5	853.2	856.7	860.1	863.4	866.5	869.6	872.5	875.4	878.2
283.15 K, x2 = 0.625	840.2	843.9	847.5	850.9	854.2	857.4	860.5	863.5	866.4	869.2
283.15 K, x2 = 0.75	829.2	832.9	836.5	840	843.4	846.6	849.7	852.8	855.7	858.6
283.15 K, x2 = 0.875	815.4	819.2	823	826.5	829.9	833.2	836.4	839.5	842.5	845.4
293.15 K, x2 = 0	866.8	870.5	874.1	877.5	880.8	884	887.1	890.1	893	895.9
293.15 K, x2 = 0.125	861	864.7	868.3	871.8	875.1	878.4	881.5	884.6	887.5	890.4
293.15 K, x2 = 0.25	854.9	858.6	862.3	865.8	869.2	872.5	875.6	878.7	881.7	884.5
293.15 K, x2 = 0.375	848.1	851.8	855.5	859.1	862.5	865.8	869	872.1	875.1	878
293.15 K, x2 = 0.5	840.3	844	847.8	851.4	854.8	858.1	861.4	864.5	867.5	870.4
293.15 K, x2 = 0.625	831.1	834.9	838.7	842.3	845.8	849.2	852.4	855.5	858.6	861.5
293.15 K, x2 = 0.75	820.2	824.1	827.9	831.6	835.1	838.5	841.8	845	848	851
293.15 K, x2 = 0.875	806.6	810.6	814.5	818.3	821.9	825.4	828.7	831.9	835	838
303.15 K, x2 = 0	857.5	861.4	865.2	868.8	872.3	875.7	879	882.1	885.2	888.1
303.15 K, x2 = 0.125	851.4	855.4	859.2	862.9	866.4	869.9	873.2	876.4	879.4	882.5
303.15 K, x2 = 0.25	845.3	849.3	853.2	856.9	860.5	863.9	867.3	870.4	873.6	876.6
303.15 K, x2 = 0.375	838.5	842.6	846.5	850.3	853.9	857.3	860.7	863.9	867.1	870.1
303.15 K, x2 = 0.5	830.8	834.8	838.8	842.6	846.2	849.7	853.1	856.4	859.5	862.6
303.15 K, x2 = 0.625	821.7	825.8	829.8	833.7	837.3	840.9	844.3	847.6	850.7	853.8
303.15 K, x2 = 0.75	810.9	815.1	819.2	823.1	826.8	830.4	833.8	837.1	840.3	843.4
303.15 K, x2 = 0.875	797.6	801.9	806.1	810	813.8	817.4	820.9	824.3	827.5	830.6
313.15 K, x2 = 0	848.1	852.2	856.2	860	863.7	867.3	870.7	874	877.2	880.3
313.15 K, x2 = 0.125	841.8	845.9	850	853.9	857.7	861.3	864.7	868.1	871.3	874.5
313.15 K, x2 = 0.25	835.6	839.8	844	847.9	851.7	855.3	858.8	862.2	865.4	868.6
313.15 K, x2 = 0.375	828.9	833.2	837.3	841.3	845.1	848.8	852.3	855.7	859	862.2
313.15 K, x2 = 0.5	821.2	825.5	829.7	833.7	837.5	841.2	844.8	848.2	851.5	854.7
313.15 K, x2 = 0.625	812.2	816.5	820.8	824.8	828.7	832.5	836	839.4	842.8	846
313.15 K, x2 = 0.75	801.6	806	810.3	814.4	818.3	822.1	825.7	829.2	832.5	835.8
313.15 K, x2 = 0.875	788.6	793.1	797.5	801.6	805.6	809.4	813.1	816.6	819.9	823.2
323.15 K, x2 = 0	838.6	843	847.2	851.3	855.2	858.9	862.5	866	869.4	872.6
323.15 K, x2 = 0.125	832.1	836.5	840.8	845	848.9	852.7	856.3	859.9	863.3	866.5
323.15 K, x2 = 0.25	825.8	830.3	834.7	838.9	842.9	846.7	850.4	853.9	857.3	860.6
323.15 K, x2 = 0.375	819.1	823.6	828	832.3	836.3	840.2	843.8	847.4	850.9	854.2
323.15 K, x2 = 0.5	811.3	815.9	820.4	824.7	828.8	832.6	836.4	840	843.4	846.7
323.15 K, x2 = 0.625	802.5	807.1	811.6	815.9	820	824	827.7	831.3	834.8	838.1
323.15 K, x2 = 0.75	792.1	796.8	801.3	805.7	809.8	813.8	817.5	821.2	824.7	828.1
323.15 K, x2 = 0.875	779.3	784.1	788.7	793.1	797.3	801.3	805.1	808.8	812.3	815.7
333.15 K, x2 = 0	828.8	833.5	838	842.3	846.4	850.4	854.2	857.9	861.4	864.8
333.15 K, x2 = 0.125	822	826.7	831.4	835.8	839.9	843.9	847.8	851.5	855.1	858.5
333.15 K, x2 = 0.25	815.6	820.4	825.1	829.5	833.7	837.8	841.7	845.4	849	852.5
333.15 K, x2 = 0.375	808.8	813.6	818.4	822.9	827.1	831.2	835.1	838.9	842.5	846
333.15 K, x2 = 0.5	801.2	806.1	810.8	815.4	819.7	823.8	827.7	831.5	835.1	838.6
333.15 K, x2 = 0.625	792.3	797.2	802.1	806.7	811	815.2	819.1	822.9	826.6	830.1
333.15 K, x2 = 0.75	782	787	791.9	796.5	800.9	805.1	809.1	812.9	816.6	820.1
333.15 K, x2 = 0.875	769.5	774.6	779.5	784.2	788.7	792.9	796.9	800.7	804.4	808
343.15 K, x2 = 0	819.2	824.1	829	833.5	837.9	842.1	846	849.9	853.5	857
343.15 K, x2 = 0.125	811.9	817	821.9	826.6	831.1	835.3	839.3	843.2	846.9	850.5
343.15 K, x2 = 0.25	805.3	810.5	815.5	820.3	824.8	829	833.1	837	840.8	844.4
343.15 K, x2 = 0.375	798.5	803.7	808.8	813.6	818.1	822.4	826.5	830.5	834.2	837.9
343.15 K, x2 = 0.5	790.7	796	801.1	806	810.6	814.9	819	823	826.8	830.5
343.15 K, x2 = 0.625	781.9	787.3	792.5	797.4	802	806.3	810.5	814.5	818.3	822
343.15 K, x2 = 0.75	771.8	777.2	782.5	787.4	792	796.4	800.6	804.6	808.5	812.2
343.15 K, x2 = 0.875	759.6	765	770.3	775.3	780	784.4	788.6	792.7	796.5	800.2
353.15 K, x2 = 0	809.4	814.7	819.9	824.7	829.3	833.7	837.9	841.9	845.7	849.4
353.15 K, x2 = 0.125	801.7	807.2	812.5	817.4	822.2	826.7	830.9	835	838.9	842.7
353.15 K, x2 = 0.25	–	800.4	805.8	810.9	815.6	820.2	824.5	828.6	832.6	836.4
353.15 K, x2 = 0.375	–	793.4	798.9	804	808.8	813.4	817.8	821.9	825.9	829.7
353.15 K, x2 = 0.5	–	785.7	791.3	796.4	801.3	805.9	810.3	814.5	818.5	822.3
353.15 K, x2 = 0.625	–	777	782.6	787.9	792.8	797.4	801.8	806	810	813.9
353.15 K, x2 = 0.75	–	767.1	772.7	778	782.9	787.6	792	796.3	800.3	804.2
353.15 K, x2 = 0.875	–	755.1	760.8	766.1	771.1	775.8	780.3	784.5	788.6	792.4
